# Key:
# [1] = system: human primary fibroblasts (PHF); assay: Marker expression (immunohistochemistry) in human primary fibroblasts with SP alone or with NK1 antagonists; type: cell-based; conditions: SP 1 μM; 48 h;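 further: primary human dermal fibroblasts, immunostained with rabbit polyclonal antibodies against each marker, value is percentage of stained cells among all cells counted in 20 fields at 400× per section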
# [2] = system: fibroblasts (PHF) co-cultured with tumor cells of human colon adenocarcinoma (SW-403); assay: Marker expression (IHC) in PHF co-cultured with SW-403 tumor cells; type: cell-based; conditions: co-culture with SW-403; SP 1 μM; 48 h
# Protocol: All cultures were maintained 48 hours, following which the same cells were included in paraffin blocks for subsequent analysis of the expression of different markers by immunohistochemistry (see Example 1). The primary antibodies used to perform immunohistochemical assays and their concentration are detailed in Example 2. All experiments were carried out sixfold. Analyzed markers in fibroblast cells (stromal cells) were: TGF-α, TGF-β1, TGF-β2, TGF-β3, SPARC, MMP-3, MMP-7, MMP-9, MMP-11, MMP-13 and MMP-14.
# [3] = system: fibroblasts (PHF) co-cultured with tumor cells of human breast carcinoma (MCF-7); assay: Marker expression (IHC) in PHF co-cultured with MCF-7 tumor cells; type: cell-based; conditions: co-culture with MCF-7; SP 1 μM; 48 h;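 further: value is the percentage of fibroblasts positive for each marker, with fibroblasts cultured alone as reference, grown in fresh plasma from a healthy donor, six replicates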
# Protocol: (§1) All cultures were maintained 48 hours, following which the same cells were included in paraffin blocks for subsequent analysis of the expression of different markers by immunohistochemistry (see Example 1). […] All experiments were carried out sixfold. Analyzed markers in fibroblast cells (stromal cells) were: TGF-α, TGF-β1, TGF-β2, TGF-β3, SPARC, MMP-3, MMP-7, MMP-9, MMP-11, MMP-13 and MMP-14.
# [4] = system: fibroblasts (PHF) co-cultured with tumor cells of lung carcinoma (A-427); assay: Marker expression (IHC) in PHF co-cultured with A-427 tumor cells; type: cell-based, human; conditions: co-culture with A-427 lung carcinoma; SP 1 μM; 48 h;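 further: cultures grown in human blood plasma from a healthy donor, value is the percentage of fibroblasts positive for each marker, six replicates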
# Protocol: as §1
# [5] = system: fibroblasts (PHF) co-cultured with tumor cells, thyroid carcinoma (reference A-427); assay: Marker expression (IHC) in PHF co-cultured with thyroid carcinoma tumor cells; type: cell-based, human; conditions: co-culture with thyroid carcinoma cells; SP 1 μM; 48 h;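 further: grown in fresh plasma from a healthy human donor, read-out is percent of fibroblasts positive for each marker, compared with fibroblasts cultured alone, run in six replicates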
# Protocol: as §1
# [6] = system: fibroblasts (PHF) co-cultured with tumor cells, thyroid carcinoma; assay: as above; type: cell-based, human; conditions: co-culture with thyroid carcinoma cells; SP 1 μM; 48 h
# Protocol: as §1
# [7] = system: fibroblasts (PHF) co-cultivated with tumor cell carcinoma of urinary bladder (5637); assay: Marker expression (IHC) in PHF co-cultured with 5637 tumor cells; type: cell-based, human; conditions: co-culture with 5637; SP 1 μM; 48 h
# Protocol: as §1
# [8] = system: fibroblasts (PHF) co-cultured with tumor cells of human Edwing sarcoma (MHH-ES-1); assay: Marker expression (IHC) in PHF co-cultured with MHH-ES-1 tumor cells; type: cell-based; conditions: PHF co-cultured with MHH-ES-1 + SP
# Protocol: as §1
smiles,measurement,setting,value
CSCC[C@H](NC(=O)[C@H](CC(C)C)NC(=O)CNC(=O)[C@H](Cc1ccccc1)NC(=O)[C@H](Cc1ccccc1)NC(=O)[C@H](CCC(N)=O)NC(=O)[C@H](CCC(N)=O)NC(=O)[C@@H]1CCCN1C(=O)[C@H](CCCCN)NC(=O)[C@@H]1CCCN1C(=O)[C@@H](N)CCCNC(=N)N)C(N)=O [SP],PHF cells expressing MMP-3,[1],33.9 ± 2.2%
same,PHF cells expressing MMP-7,[1],46.2 ± 2.3%
same,PHF cells expressing MMP-9,[1],35.5 ± 2.5%
same,PHF cells expressing MMP-11,[1],7.8 ± 2.9%
same,PHF cells expressing MMP-13,[1],17.1 ± 2.6%
same,PHF cells expressing MMP-14,[1],47.3 ± 2.5%
same,PHF cells expressing SPARC,[1],16 ± 1.9%
same,PHF cells expressing TGFα,[1],16.5 ± 1.2%
same,PHF cells expressing TGFβ 1,[1],18.4 ± 1.3%
same,PHF cells expressing TGFβ 2,[1],24.6 ± 1.4%
same,PHF cells expressing TGFβ 3,[1],23.1 ± 1.7%
same,PHF cells expressing MMP-3,[2],46.4 ± 1.9%
same,PHF cells expressing MMP-7,[2],53.1 ± 2.2%
same,PHF cells expressing MMP-9,[2],55.7 ± 1.6%
same,PHF cells expressing MMP-11,[2],26.4 ± 2.6%
same,PHF cells expressing MMP-13,[2],46.5 ± 3.7%
same,PHF cells expressing MMP-14,[2],51.3 ± 3.6%
same,PHF cells expressing SPARC,[2],48 ± 1.6%
same,PHF cells expressing TGF-α,[2],42.5 ± 1%
same,PHF cells expressing TGF-β1,[2],34.3 ± 1.2%
same,PHF cells expressing TGF-β2,[2],42.5 ± 1.5%
same,PHF cells expressing TGF-β3,[2],44 ± 1.9%
same,PHF cells expressing MMP-3,[3],44.5 ± 1.8%
same,PHF cells expressing MMP-7,[3],57.1 ± 2.7%
same,PHF cells expressing MMP-9,[3],55.3 ± 1.7%
same,PHF cells expressing MMP-11,[3],25.4 ± 2.7%
same,PHF cells expressing MMP-13,[3],46 ± 3.6%
same,PHF cells expressing MMP-14,[3],48.2 ± 3.5%
same,PHF cells expressing SPARC,[3],49 ± 1.5%
same,PHF cells expressing TGF-α,[3],42.6 ± 1.1%
same,PHF cells expressing TGF-β1,[3],43.2 ± 1%
same,PHF cells expressing TGF-β2,[3],42.6 ± 2.1%
same,PHF cells expressing TGF-β3,[3],46 ± 1.7%
same,PHF cells expressing MMP-3,[4],45.5 ± 1.6%
same,PHF cells expressing MMP-7,[4],54.3 ± 2.2%
same,PHF cells expressing MMP-9,[4],55.5 ± 2.4%
same,PHF cells expressing MMP-11,[4],25.5 ± 1.8%
same,PHF cells expressing MMP-13,[4],44.3 ± 2.5%
same,PHF cells expressing MMP-14,[4],45.1 ± 3.5%
same,PHF cells expressing SPARC,[4],47 ± 1.2%
same,PHF cells expressing TGF-α,[4],42.3 ± 2.1%
same,PHF cells expressing TGF-β1,[4],33.4 ± 2.1%
same,PHF cells expressing TGF-β2,[4],40.9 ± 2.1%
same,PHF cells expressing TGF-β3,[4],51.4 ± 1.6%
same,PHF cells expressing MMP-3,[5],43.1 ± 1.7%
same,PHF cells expressing MMP-7,[5],56.4 ± 3.8%
same,PHF cells expressing MMP-9,[5],51.4 ± 3.4%
same,PHF cells expressing MMP-13,[5],4.25 ± 3.6%
same,PHF cells expressing MMP-14,[5],49.1 ± 3.6%
same,PHF cells expressing SPARC,[5],48.1 ± 1.3%
same,PHF cells expressing TGF-α,[5],42.4 ± 1.2%
same,PHF cells expressing TGF-β1,[5],33.7 ± 1.3%
same,PHF cells expressing TGF-β2,[5],42.6 ± 1.1%
same,PHF cells expressing TGF-β3,[5],42.1 ± 1.5%
same,PHF cells expressing MMP-11,[6],29.4 ± 3.8%
same,PHF cells expressing MMP-3,[7],44.5 ± 2.7%
same,PHF cells expressing MMP-7,[7],55.4 ± 3.8%
same,PHF cells expressing MMP-9,[7],53.3 ± 4.4%
same,PHF cells expressing MMP-11,[7],26.5 ± 1.8%
same,PHF cells expressing MMP-13,[7],44.5 ± 2.5%
same,PHF cells expressing MMP-14,[7],47.1 ± 3.5%
same,PHF cells expressing SPARC,[7],47.4 ± 2.2%
same,PHF cells expressing TGF-α,[7],42.4 ± 1.1%
same,PHF cells expressing TGF-β1,[7],43.6 ± 1.1%
same,PHF cells expressing TGF-β2,[7],44.3 ± 1.1%
same,PHF cells expressing TGF-β3,[7],42.3 ± 1.2%
same,cells expressing MMP-3,[8],43.5 ± 3.7%
same,cells expressing MMP-7,[8],56.7 ± 4.8%
same,cells expressing MMP-9,[8],54.4 ± 2.4%
same,cells expressing MMP-11,[8],28.4 ± 3.8%
same,cells expressing MMP-13,[8],46.6 ± 3.6%
same,cells expressing MMP-14,[8],49.6 ± 4.2%
same,cells expressing SPARC,[8],46.5 ± 3.2%
same,cells expressing TGF-α,[8],36.4 ± 3.1%
same,cells expressing TGF-β1,[8],35.5 ± 2.1%
same,cells expressing TGF-β2,[8],42.6 ± 5.1%
same,cells expressing TGF-β3,[8],42.4 ± 1.6%

# From patent US20180071317A1, “USE OF AGENTS THAT ALTER THE PERITUMORAL ENVIRONMENT FOR THE TREATMENT OF CANCER” (SERVICIO ANDALUZ DE SALUD, priority 2011, published 2018)
